Assay results taken from publication PMC9832505, “Cell Adhesion Motif-Functionalized Lipopeptides: Nanostructure and Selective Myoblast Cytocompatibility” (Biomacromolecules, 2022).
Residues, ends and D or L forms follow the SMILES beside them.

Tests used:
L929 murine fibroblast = experiment: MTT cytotoxicity assay on L929 fibroblasts; format: cell-based, mouse; conditions: for cell survival: 1 wt %; for cell viability: 0.1 wt %
Experimental: (§1) L929 murine fibroblast and C2C12 immortalized mouse myoblast cell lines (both from ECACC General Cell Collection) were grown in Dulbecco’s modified Eagle’s medium (DMEM) supplemented with 10% fetal bovine serum, 20 mM HEPES, and 1% GlutaMAX. The cells were maintained at pH 7.4, 37 °C, and 5% CO2 in 25 cm^2 cell culture flasks.
(§2) Cells were seeded in 96-well plates at a density of 0.6 × 10^4 cells per well. Cells were then treated with peptides dissolved in the medium at the concentrations of 0.1 and 1 × 10^–4 wt %. To test cytocompatibility in the presence of the hydrogels, wells were filled with 1 wt % mG and pG hydrogels before seeding. At the end of the treatment (after 24 or 72 h), cell viability was assessed using an MTT [3-(4, 5-dimethylthiazolyl-2)-2, 5-diphenyltetrazolium bromide] assay. In brief, after the removal of the culture medium, MTT, dissolved in DMEM at a concentration of 0.5 mg/mL, was added to the cells and incubated for 4 h at 37 °C. The resulting formazan crystals were dissolved by adding dimethyl sulfoxide. Absorbance values of blue formazan were determined at 560 nm using an automatic plate reader. Cell survival was expressed as a percentage of viable cells in the presence of peptides, compared to control cells grown in their absence. The assay was repeated three times, and the results were averaged. Statistical significance was tested using multiple Welch’s t-tests. All analyses were conducted using Prism 7.

[1] = system: C2C12 immortalized mouse myoblast; experiment: MTT cytotoxicity assay on C2C12 myoblasts; format: cell-based; conditions: for cell viability: 72 h, 0.1 wt %; for tolerance of hydrogels in words: C2C12 on hydrogels (1 wt %), 24 h and 72 h, MTT
Experimental: as §1, §2

[2] = not given; remark: listed apart in the source
[3] = not given; remark: listed apart in the source

Compound | cell survival (L929 murine fibroblast; 24 h) | cell viability (L929 murine fibroblast; 72 h) | cell survival (L929 murine fibroblast; 72 h) | cell viability [1] | tolerance of hydrogels in words [1] | nanotape mean thickness in hydrogel | nanotube radius [2] | fiber mean diameter [3]
CCCCCCCCCCCCCC(=O)NCC(=O)NCC(=O)NCC(=O)N[C@@H](CCCNC(=N)N)C(=O)NCC(=O)N[C@@H](CC(=O)O)C(=O)N[C@@H](CO)C(=O)O [mG, C14-GGGRGDS] (HELM PEPTIDE1{[CCCCCCCCCCCCCC(=O)[*:2]].G.G.G.R.G.D.S}$$$$V2.0) | 92.6 ± 8.8% | 30.7 ± 4.7% | 94.6 ± 12.6% | 84.4 ± 9.6% | reasonably well tolerated | 13.6 nm | – | –
CCCCCCCCCCCCCC(=O)N[C@@H](Cc1c[nH]c2ccccc12)C(=O)NCC(=O)NCC(=O)N[C@@H](CCCNC(=N)N)C(=O)NCC(=O)N[C@@H](CC(=O)O)C(=O)N[C@@H](CO)C(=O)O [mW, C14-WGGRGDS] (HELM PEPTIDE1{[CCCCCCCCCCCCCC(=O)[*:2]].W.G.G.R.G.D.S}$$$$V2.0) | – | 28.1 ± 3.1% | – | 72.3 ± 10.2% | – | – | 750 Å | –
CCCCCCCCCCCCCCCC(=O)NCC(=O)NCC(=O)NCC(=O)N[C@@H](CCCNC(=N)N)C(=O)NCC(=O)N[C@@H](CC(=O)O)C(=O)N[C@@H](CO)C(=O)O [pG, C16-GGGRGDS] (HELM PEPTIDE1{[CCCCCCCCCCCCCCCC(=O)[*:2]].G.G.G.R.G.D.S}$$$$V2.0) | – | 31.8 ± 5.1% | – | 86.0 ± 6.8% | reasonably well tolerated | – | – | –
CCCCCCCCCCCCCCCC(=O)N[C@@H](Cc1c[nH]c2ccccc12)C(=O)NCC(=O)NCC(=O)N[C@@H](CCCNC(=N)N)C(=O)NCC(=O)N[C@@H](CC(=O)O)C(=O)N[C@@H](CO)C(=O)O [pW, C16-WGGRGDS] (HELM PEPTIDE1{[CCCCCCCCCCCCCCCC(=O)[*:2]].W.G.G.R.G.D.S}$$$$V2.0) | – | 36.3 ± 5.1% | – | 73.3 ± 2.8% | – | – | – | 4 nm
